This experiment deals with Snai1, Vimentin genes in liver tissue. In words: Real-time quantitative PCR of liver tissue, DEN-induced liver cancer mouse model. Particulars: DEN+SAL liver tissue, corrected with β-actin. The format is in vivo, C57BL/6 mouse. The procedure:
A normal mouse (M-Ctrl, n=5), a DEN-induced liver cancer mouse model (M-DEN, n=4), and a DEN-induced liver cancer mouse model treated with the salsolinol (M-DEN+SAL, n=5) are sacrificed, and liver tissues are obtained. And after that, trizol is added to lyse the liver tissues. 1 ml of a TRI reagent solution is added to the liver tissue, and after homogenization, centrifuge separation is performed at 4° C. and 12,000 rpm for 10 minutes. About 0.75 ml of the middle layer excluding the upper and lower debris is separated and put into a new tube. […]
After removing the supernatant, the RNA is washed with 75% ethanol, centrifuge separation is performed at 4° C. at 7,500 rpm for 5 minutes, and the remaining ethanol is evaporated at room temperature. The separated total RNA is quantified by using Nandrop 2000 (Thermo), and after that, cDNA is synthesized by using a reverse transcription reaction oligo dT primer and RT enzyme. By using the synthesized cDNA as a template, after addition of each primer and Bio-Rad SYBR mix (#1725270) and amplification by using a Bio-Rad Real-Time PCR instrument, analysis is performed by using quantitative software. The products amplified by real time PCR are quantified by using a comparative cycle threshold (Ct) method. […]

In the case of `CC1NCCc2cc(O)c(O)cc21` (centres unmarked) [salsolinol, 6,7-dihydroxy-1-methyl-1,2,3,4-tetrahydroisoquinoline], the “Snai1 gene expression level” value is “decreased to the expression level of expression in the normal mouse” and the “Vimentin gene expression level” value is “decreased to the expression level of expression in the normal mouse”.

Values taken from patent US11628164B2, “Composition containing salsolinol for treating liver cancer” (SUNGSHIN WOMEN'S UNIVERSITY R&DB FOUNDATION, priority 2020, dated 2023).
